Reference: ChEMBL document CHEMBL1909046, “DrugMatrix in vitro pharmacology data”

Experiments:
[1] = biological target: T1, Neuropeptide Y receptor type 1 (Homo sapiens, UniProt P25929); assay type: cell membranes, Membrane; settings: sk-n-mc; note: in other assays of this panel Not Active means under 50% inhibition at 10 µM
T1 sequence (P25929 whole entry): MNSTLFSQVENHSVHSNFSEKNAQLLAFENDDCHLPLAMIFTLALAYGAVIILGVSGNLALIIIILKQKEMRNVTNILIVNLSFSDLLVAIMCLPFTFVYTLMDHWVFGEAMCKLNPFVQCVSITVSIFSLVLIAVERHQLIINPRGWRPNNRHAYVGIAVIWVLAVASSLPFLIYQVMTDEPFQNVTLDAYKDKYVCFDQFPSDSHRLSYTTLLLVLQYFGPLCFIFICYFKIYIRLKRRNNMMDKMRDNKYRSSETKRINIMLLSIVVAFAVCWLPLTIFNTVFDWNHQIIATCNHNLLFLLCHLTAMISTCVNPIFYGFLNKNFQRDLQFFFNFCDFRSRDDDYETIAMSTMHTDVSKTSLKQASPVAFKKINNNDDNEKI

[2] = biological target: T2, Muscarinic acetylcholine receptor M5 (Homo sapiens, UniProt P08912); assay type: cell membranes, CHO-K1, Membrane; settings: cho-k1; note: in other assays of this panel Not Active means under 50% inhibition at 10 µM
T2 sequence (P08912 whole entry): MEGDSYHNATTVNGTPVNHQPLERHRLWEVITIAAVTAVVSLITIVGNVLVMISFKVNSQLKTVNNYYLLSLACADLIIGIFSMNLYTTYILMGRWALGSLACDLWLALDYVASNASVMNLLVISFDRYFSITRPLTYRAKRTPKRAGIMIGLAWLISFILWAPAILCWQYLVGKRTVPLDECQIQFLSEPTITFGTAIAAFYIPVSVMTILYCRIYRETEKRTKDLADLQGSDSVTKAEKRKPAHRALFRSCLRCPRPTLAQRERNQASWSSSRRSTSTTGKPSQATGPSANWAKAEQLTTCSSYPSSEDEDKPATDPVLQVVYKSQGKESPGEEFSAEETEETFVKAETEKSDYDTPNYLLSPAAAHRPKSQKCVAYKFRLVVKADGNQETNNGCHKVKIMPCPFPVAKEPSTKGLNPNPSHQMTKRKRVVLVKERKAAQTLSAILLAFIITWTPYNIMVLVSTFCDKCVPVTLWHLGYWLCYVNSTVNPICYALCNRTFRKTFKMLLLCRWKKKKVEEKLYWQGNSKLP

Cytochrome P450 2C9 = Cytochrome P450 2C9 (Homo sapiens, UniProt P11712); settings: bti-tn-5b1-4; note: in other assays of this panel Not Active means under 50% inhibition at 10 µM
Cytochrome P450 2C9, sequence (P11712 whole entry): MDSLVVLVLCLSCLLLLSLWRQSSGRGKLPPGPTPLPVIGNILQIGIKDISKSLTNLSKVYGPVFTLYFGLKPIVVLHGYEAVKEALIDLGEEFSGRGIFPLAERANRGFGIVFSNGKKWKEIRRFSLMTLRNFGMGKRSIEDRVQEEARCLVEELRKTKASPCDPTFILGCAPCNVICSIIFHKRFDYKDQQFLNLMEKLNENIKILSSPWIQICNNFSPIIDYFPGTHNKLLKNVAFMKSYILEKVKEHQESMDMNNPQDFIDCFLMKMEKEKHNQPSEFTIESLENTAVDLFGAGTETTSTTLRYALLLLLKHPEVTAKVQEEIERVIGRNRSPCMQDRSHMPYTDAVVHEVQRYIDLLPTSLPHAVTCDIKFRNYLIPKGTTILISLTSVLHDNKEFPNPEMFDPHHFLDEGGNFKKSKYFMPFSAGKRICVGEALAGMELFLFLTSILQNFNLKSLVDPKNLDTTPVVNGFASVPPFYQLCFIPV

[3] = biological target: T3, Muscarinic acetylcholine receptor M4 (Homo sapiens, UniProt P08173); assay type: cell membranes, CHO-K1, Membrane; settings: cho-k1; note: in other assays of this panel Not Active means under 50% inhibition at 10 µM
T3 sequence (P08173 whole entry): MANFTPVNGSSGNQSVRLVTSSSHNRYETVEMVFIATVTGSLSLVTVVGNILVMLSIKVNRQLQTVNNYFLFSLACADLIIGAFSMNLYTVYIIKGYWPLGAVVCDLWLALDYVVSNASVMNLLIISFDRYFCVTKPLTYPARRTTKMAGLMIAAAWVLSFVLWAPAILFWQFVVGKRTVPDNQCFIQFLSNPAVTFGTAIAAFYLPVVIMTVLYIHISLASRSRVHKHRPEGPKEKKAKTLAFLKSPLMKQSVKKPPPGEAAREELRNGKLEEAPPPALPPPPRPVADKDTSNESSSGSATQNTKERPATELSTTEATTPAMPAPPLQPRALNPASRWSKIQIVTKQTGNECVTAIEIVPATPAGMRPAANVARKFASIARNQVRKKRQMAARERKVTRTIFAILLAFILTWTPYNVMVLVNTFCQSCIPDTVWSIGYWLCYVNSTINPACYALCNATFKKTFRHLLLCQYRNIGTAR

Glucocorticoid receptor = biological target: T4, Glucocorticoid receptor (Homo sapiens, UniProt P04150); settings: hela s3; note: in other assays of this panel Not Active means under 50% inhibition at 10 µM
T4 sequence (P04150 whole entry): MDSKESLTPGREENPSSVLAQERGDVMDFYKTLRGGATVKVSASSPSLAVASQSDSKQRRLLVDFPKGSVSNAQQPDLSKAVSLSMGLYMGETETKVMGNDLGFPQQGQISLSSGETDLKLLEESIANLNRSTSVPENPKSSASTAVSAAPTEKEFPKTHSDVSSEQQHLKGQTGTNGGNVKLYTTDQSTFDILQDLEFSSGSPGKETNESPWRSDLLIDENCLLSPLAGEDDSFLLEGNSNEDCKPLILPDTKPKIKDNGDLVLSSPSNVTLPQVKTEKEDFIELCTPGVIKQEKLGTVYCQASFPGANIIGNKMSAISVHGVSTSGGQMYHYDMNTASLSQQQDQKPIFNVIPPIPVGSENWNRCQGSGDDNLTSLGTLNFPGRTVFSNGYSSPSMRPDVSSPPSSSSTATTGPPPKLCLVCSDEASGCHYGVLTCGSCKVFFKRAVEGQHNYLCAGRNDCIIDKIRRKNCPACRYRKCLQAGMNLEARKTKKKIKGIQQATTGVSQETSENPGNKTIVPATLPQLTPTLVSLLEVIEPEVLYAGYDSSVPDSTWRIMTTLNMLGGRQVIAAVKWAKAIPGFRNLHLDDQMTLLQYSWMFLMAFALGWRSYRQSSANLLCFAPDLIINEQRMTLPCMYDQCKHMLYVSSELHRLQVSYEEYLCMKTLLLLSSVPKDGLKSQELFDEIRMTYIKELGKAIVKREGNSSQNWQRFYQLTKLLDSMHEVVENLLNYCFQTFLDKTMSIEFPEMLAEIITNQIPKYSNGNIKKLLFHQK

[4] = biological target: C-C chemokine receptor type 2 (Homo sapiens, UniProt P41597); assay type: cell membranes, CHO-K1, Membrane; settings: cho-k1; note: in other assays of this panel Not Active means under 50% inhibition at 10 µM
C-C chemokine receptor type 2, sequence (P41597 whole entry): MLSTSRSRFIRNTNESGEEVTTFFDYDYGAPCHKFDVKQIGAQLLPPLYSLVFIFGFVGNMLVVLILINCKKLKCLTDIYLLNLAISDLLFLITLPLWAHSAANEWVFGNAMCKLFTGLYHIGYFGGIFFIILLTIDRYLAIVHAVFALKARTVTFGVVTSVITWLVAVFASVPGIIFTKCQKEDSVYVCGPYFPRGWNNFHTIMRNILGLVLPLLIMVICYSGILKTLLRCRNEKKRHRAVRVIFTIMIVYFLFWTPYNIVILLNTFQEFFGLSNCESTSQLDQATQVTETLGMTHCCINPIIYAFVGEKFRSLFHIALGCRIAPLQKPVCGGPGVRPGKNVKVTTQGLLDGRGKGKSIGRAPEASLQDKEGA

[5] = DRUGMATRIX: Purinergic P2X radioligand binding (ligand: [3H] alpha, beta-Methylene-ATP); assay type: cell membranes, Oryctolagus cuniculus, New Zealand albino, Urinary bladder, Membrane; settings: Not Active = under 50% inhibition at 10 µM

CC(C)(C)NC(=O)[C@@H]1C[C@@H]2CCCC[C@@H]2CN1C[C@@H](O)[C@H](Cc1ccccc1)NC(=O)[C@H](CC(N)=O)NC(=O)c1ccc2ccccc2n1
Not Active: IC50 [1] | IC50 [2] | IC50 (Cytochrome P450 2C9) | Ki (Cytochrome P450 2C9) | IC50 [3] | IC50 (Glucocorticoid receptor) | IC50 [4] | IC50 [5] | Ki [5]

Cc1oncc1C(=O)Nc1ccc(C(F)(F)F)cc1 [LEFLUNOMIDE]
Not Active: IC50 [1] | IC50 [2] | IC50 (Cytochrome P450 2C9) | Ki (Cytochrome P450 2C9) | IC50 [3] | IC50 (Glucocorticoid receptor) | IC50 [4] | IC50 [5] | Ki [5]

c1ccc([C@H]2CN3CCSC3=N2)cc1 [LEVAMISOLE]
Not Active: IC50 [1] | IC50 [2] | IC50 (Cytochrome P450 2C9) | Ki (Cytochrome P450 2C9) | IC50 [3] | Ki (Glucocorticoid receptor) | IC50 [4] | IC50 [5] | Ki [5]

N[C@@H](Cc1ccc(O)c(O)c1)C(=O)O [LEVODOPA]
Not Active: IC50 [1] | IC50 [2] | IC50 (Cytochrome P450 2C9) | Ki (Cytochrome P450 2C9) | IC50 [3] | IC50 (Glucocorticoid receptor) | IC50 [4] | IC50 [5] | Ki [5]

CC[C@@H](CO)NC(=O)[C@@H]1C=C2c3cccc4[nH]cc(c34)C[C@H]2N(C)C1 [METHYLERGONOVINE]
Not Active: IC50 [1] | IC50 [2] | IC50 (Cytochrome P450 2C9) | Ki (Cytochrome P450 2C9) | IC50 [3] | IC50 (Glucocorticoid receptor) | IC50 [4] | IC50 [5] | Ki [5]

COc1nc(C)nc(Cl)c1NC1=NCCN1 [MOXONIDINE]
Not Active: IC50 [1] | IC50 [2] | IC50 (Cytochrome P450 2C9) | Ki (Cytochrome P450 2C9) | IC50 [3] | IC50 (Glucocorticoid receptor) | IC50 [4] | IC50 [5] | Ki [5]

O=c1ncn2nc(Sc3ccc(F)cc3F)ccc2c1-c1c(Cl)cccc1Cl [NEFLAMAPIMOD]
Not Active: IC50 [1] | IC50 [2] | IC50 (Cytochrome P450 2C9) | Ki (Cytochrome P450 2C9) | IC50 [3] | IC50 (Glucocorticoid receptor) | IC50 [4] | IC50 [5] | Ki [5]

C=CCC1(C(C)CCC)C(=O)NC(=O)NC1=O (stereo not given) [SECOBARBITAL]
Not Active: IC50 [1] | IC50 [2] | IC50 (Cytochrome P450 2C9) | Ki (Cytochrome P450 2C9) | IC50 [3] | IC50 (Glucocorticoid receptor) | IC50 [4] | IC50 [5] | Ki [5]

C[C@@H]1CN(c2c(F)c(N)c3c(=O)c(C(=O)O)cn(C4CC4)c3c2F)C[C@H](C)N1 [SPARFLOXACIN]
Not Active: IC50 [1] | IC50 [2] | IC50 (Cytochrome P450 2C9) | Ki (Cytochrome P450 2C9) | IC50 [3] | IC50 (Glucocorticoid receptor) | IC50 [4] | IC50 [5] | Ki [5]

Nc1nc2nc[nH]c2c(=S)[nH]1 [THIOGUANINE]
Not Active: IC50 [1] | IC50 [2] | IC50 (Cytochrome P450 2C9) | Ki (Cytochrome P450 2C9) | IC50 [3] | IC50 (Glucocorticoid receptor) | IC50 [4] | IC50 [5] | Ki [5]

Cc1cccc(N(C)C(=S)Oc2ccc3ccccc3c2)c1 [TOLNAFTATE]
Not Active: IC50 [1] | IC50 [2] | IC50 (Cytochrome P450 2C9) | Ki (Cytochrome P450 2C9) | IC50 [3] | IC50 (Glucocorticoid receptor) | IC50 [4] | IC50 [5] | Ki [5]

N[C@@H]1[C@H]2CN(c3nc4c(cc3F)c(=O)c(C(=O)O)cn4-c3ccc(F)cc3F)C[C@@H]12 [TROVAFLOXACIN]
Not Active: IC50 [1] | IC50 [2] | IC50 (Cytochrome P450 2C9) | Ki (Cytochrome P450 2C9) | IC50 [3] | IC50 (Glucocorticoid receptor) | IC50 [4] | IC50 [5] | Ki [5]

CC[C@]1(O)C[C@H]2CN(CCc3c([nH]c4ccccc34)[C@@](C(=O)OC)(c3cc4c(cc3OC)N(C=O)[C@H]3[C@@](O)(C(=O)OC)[C@H](OC(C)=O)[C@]5(CC)C=CCN6CC[C@]43[C@@H]65)C2)C1 [VINCRISTINE]
Not Active: IC50 [1] | IC50 [2] | IC50 (Cytochrome P450 2C9) | Ki (Cytochrome P450 2C9) | IC50 [3] | IC50 (Glucocorticoid receptor) | IC50 [4] | IC50 [5] | Ki [5]

CCCOc1ccccc1-c1nc2nn[nH]c2c(=O)[nH]1 [ZAPRINAST]
Not Active: IC50 [1] | IC50 [2] | IC50 (Cytochrome P450 2C9) | Ki (Cytochrome P450 2C9) | IC50 [3] | IC50 (Glucocorticoid receptor) | IC50 [4] | IC50 [5] | Ki [5]

SODIUM NITROPRUSSIDE
Not Active: IC50 [1] | Ki [1] | IC50 [2] | Ki [2] | IC50 (Cytochrome P450 2C9) | Ki (Cytochrome P450 2C9) | IC50 [3] | Ki [3] | IC50 (Glucocorticoid receptor) | Ki (Glucocorticoid receptor) | IC50 [4] | Ki [4] | IC50 [5] | Ki [5]
